Test results reported in ChEMBL document CHEMBL1201862, “PubChem BioAssay data set” (2004).
The source made the active and inactive calls.

Tests used:
[1] = HeLa cell cytotoxicity, dose response, cytotoxicity control for MgcRacGAP inhibitor project (AID 624300); type: functional
[2] = microbe, parasite or virus in culture; type: functional; conditions: Mycobacterium tuberculosis
[3] = target: T1, Rac GTPase-activating protein 1 (Homo sapiens, UniProt Q9H0H5); assay: MgcRacGAP GTPase-activating activity inhibitors, confirmation, biochemical, ADP Hunter fluorescence, primary and confirmatory (AID 624330); type: functional
T1 sequence (Q9H0H5 whole entry): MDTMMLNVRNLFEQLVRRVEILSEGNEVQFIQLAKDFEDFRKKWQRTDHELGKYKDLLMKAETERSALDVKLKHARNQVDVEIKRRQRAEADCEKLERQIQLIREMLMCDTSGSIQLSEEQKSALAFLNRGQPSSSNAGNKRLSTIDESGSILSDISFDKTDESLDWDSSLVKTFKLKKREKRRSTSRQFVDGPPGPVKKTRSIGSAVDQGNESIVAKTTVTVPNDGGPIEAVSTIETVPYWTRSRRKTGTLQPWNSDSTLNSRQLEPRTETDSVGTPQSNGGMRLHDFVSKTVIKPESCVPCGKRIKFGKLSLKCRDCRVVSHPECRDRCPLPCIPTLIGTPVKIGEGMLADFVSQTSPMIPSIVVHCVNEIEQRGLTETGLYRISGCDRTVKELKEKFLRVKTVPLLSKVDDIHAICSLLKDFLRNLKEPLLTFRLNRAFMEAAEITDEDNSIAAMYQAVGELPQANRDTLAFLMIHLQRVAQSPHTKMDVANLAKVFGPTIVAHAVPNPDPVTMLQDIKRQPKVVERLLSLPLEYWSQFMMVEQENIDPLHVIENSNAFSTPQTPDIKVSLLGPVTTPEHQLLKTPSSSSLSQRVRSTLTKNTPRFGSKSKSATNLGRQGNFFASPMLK

[4] = Luminescence Cell-Based Dose Response HTS to Identify Activators of Luciferase Translation or Activity in H4 […] Cells. [Related pubchem assays: 1829 (Project Summary), 1814 (Primary HTS)]; type: functional
H4 = assay: Luminescence Cell-Based Dose Response HTS to Identify Activators of 5'UTR Stem-Loop Driven Prion Protein mRNA Translation in H4 Neuroglioblastoma Cells. [Related pubchem assays: 1829 (Project Summary), 1814 (Primary HTS)]; type: functional; conditions: Homo sapiens
[5] = Luminescence Cell-Based Dose Confirmation HTS to Identify Activators of 5'UTR Stem-Loop Driven Alpha-Synuclein mRNA Translation in H4 Neuroglioblastoma Cells. [Related pubchem assays: 1829 (Project Summary), 1814 (Primary HTS)]; type: functional
[6] = inhibitors of clade B AD8 Env fusion, dose response, cell-based, cherry-pick (AID 652062); type: functional;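 also: luciferase signal from cell-cell fusion driven by HIV-1 clade B AD8 Env; potency is for inhibitors of fusion seen as a drop in luminescence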
[7] = off-target signal loss in HeLa-CEM21 co-culture – HeLa F-luc CTL cells, cherry-picked, counter-screen for HIV-1 Env fusion inhibitor project, dose response (AID 652040); type: functional, cell-based;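 also: potency for signal decrease marking cytotoxic or nonspecific inhibition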
[8] = inhibitors of HIV Env-driven cell fusion, dose response, cherry-pick (AID 652057); type: functional, cell-based
[9] = ZM109 Env clade C HIV-1 fusion inhibitors, dose response, HeLa effector, CEM target cells, luciferase, cherry-pick (AID 652058); type: functional, cell-based
Cytochrome P450 2C9 = Cytochrome P450 2C9 (Homo sapiens, UniProt P11712)
Cytochrome P450 2C19 = Cytochrome P450 2C19 (Homo sapiens, UniProt P33261); assay: Cytochrome panel assay with activity outcomes. Panel member name: p450-cyp2c19 Compounds with AC50 equal or less than 10 uM are considered active; type: functional; conditions: read-out: AC50
Cytochrome P450 2D6 = Cytochrome P450 2D6 (Homo sapiens, UniProt P10635);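 also: CYP2D6 member of a cytochrome P450 panel assay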
[10] = THP-1 cell cytotoxicity, dose response, cytotoxicity control for Vif-APOBEC3G degradation inhibitor project, THP-1 cells (AID 1117359); type: functional; conditions: Human immunodeficiency virus 1, THP-1
Cytochrome P450 3A4 = Cytochrome P450 3A4 (Homo sapiens, UniProt P08684);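 also: CYP3A4 tested as one member of a cytochrome P450 panel screen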
[11] = target: Luciferin 4-monooxygenase (Photinus pyralis, UniProt P08659); assay: firefly luciferase enzyme inhibitors, dose response, biochemical, luminescence (AID 1891)
[12] = Luminescence Cell-Based Dose Confirmation HTS to Identify Inhibitors of Platelet Dense Granule Release. [Related pubchem assays: 1663 (Primary HTS), 1678 (Summary of Project)]; type: functional
Nonstructural protein 1 = Nonstructural protein 1 (Influenza A virus, UniProt Q194T2); type: functional, Influenza A virus (A/California/07/2009(H1N1))
[13] = test system: Streptococcus sp. 'group A'; assay: growth inhibition of control SK(-) GAS strain, dose response, counter-screen for streptokinase expression inhibitor project, luminescence, kanamycin, BacTiterGlo, confirmation (AID 1900); type: functional, organism-based
Streptococcus = assay: Group A Streptococcus viability loss, dose response, counter-screen for streptokinase expression inhibitor project, luminescence, BacTiterGlo (AID 1915); type: functional, organism-based;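 also: potency for reduction of bacterial viability or growth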

Chain of Cytochrome P450 2C9 (P11712 whole entry): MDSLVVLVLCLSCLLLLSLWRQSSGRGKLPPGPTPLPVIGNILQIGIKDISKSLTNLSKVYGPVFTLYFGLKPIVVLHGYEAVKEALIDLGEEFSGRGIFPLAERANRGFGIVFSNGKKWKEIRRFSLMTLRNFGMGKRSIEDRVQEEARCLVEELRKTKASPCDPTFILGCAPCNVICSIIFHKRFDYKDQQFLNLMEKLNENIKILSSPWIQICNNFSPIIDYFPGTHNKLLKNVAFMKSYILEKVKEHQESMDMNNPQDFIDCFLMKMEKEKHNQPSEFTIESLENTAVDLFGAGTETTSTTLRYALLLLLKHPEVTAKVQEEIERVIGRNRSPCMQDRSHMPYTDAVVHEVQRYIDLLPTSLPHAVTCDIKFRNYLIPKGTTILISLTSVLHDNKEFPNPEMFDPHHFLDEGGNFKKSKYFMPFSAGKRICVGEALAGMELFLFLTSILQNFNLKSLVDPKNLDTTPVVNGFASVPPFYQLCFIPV
Chain of Nonstructural protein 1 (Q194T2 whole entry): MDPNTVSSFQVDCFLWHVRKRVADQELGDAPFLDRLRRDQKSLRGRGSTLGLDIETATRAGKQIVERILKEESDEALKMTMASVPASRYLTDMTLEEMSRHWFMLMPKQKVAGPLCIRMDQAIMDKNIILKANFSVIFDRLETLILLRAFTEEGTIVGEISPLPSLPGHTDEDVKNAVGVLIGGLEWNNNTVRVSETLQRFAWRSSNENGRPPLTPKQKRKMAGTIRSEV
Chain of Cytochrome P450 2D6 (P10635 whole entry): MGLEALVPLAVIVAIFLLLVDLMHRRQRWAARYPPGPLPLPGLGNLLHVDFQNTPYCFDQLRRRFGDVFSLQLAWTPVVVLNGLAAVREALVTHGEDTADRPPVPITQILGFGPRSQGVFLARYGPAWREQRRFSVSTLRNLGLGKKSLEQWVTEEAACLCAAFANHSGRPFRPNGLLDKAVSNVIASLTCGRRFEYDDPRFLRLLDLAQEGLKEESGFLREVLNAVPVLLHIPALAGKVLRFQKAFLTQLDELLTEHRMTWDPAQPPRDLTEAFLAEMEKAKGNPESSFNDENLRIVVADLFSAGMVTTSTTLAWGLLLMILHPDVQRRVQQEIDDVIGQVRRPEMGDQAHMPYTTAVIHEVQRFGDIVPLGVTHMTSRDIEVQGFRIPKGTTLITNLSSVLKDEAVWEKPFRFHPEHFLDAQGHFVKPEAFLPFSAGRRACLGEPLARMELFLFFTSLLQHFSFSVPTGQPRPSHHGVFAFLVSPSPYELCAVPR
Chain of Cytochrome P450 3A4 (P08684 whole entry): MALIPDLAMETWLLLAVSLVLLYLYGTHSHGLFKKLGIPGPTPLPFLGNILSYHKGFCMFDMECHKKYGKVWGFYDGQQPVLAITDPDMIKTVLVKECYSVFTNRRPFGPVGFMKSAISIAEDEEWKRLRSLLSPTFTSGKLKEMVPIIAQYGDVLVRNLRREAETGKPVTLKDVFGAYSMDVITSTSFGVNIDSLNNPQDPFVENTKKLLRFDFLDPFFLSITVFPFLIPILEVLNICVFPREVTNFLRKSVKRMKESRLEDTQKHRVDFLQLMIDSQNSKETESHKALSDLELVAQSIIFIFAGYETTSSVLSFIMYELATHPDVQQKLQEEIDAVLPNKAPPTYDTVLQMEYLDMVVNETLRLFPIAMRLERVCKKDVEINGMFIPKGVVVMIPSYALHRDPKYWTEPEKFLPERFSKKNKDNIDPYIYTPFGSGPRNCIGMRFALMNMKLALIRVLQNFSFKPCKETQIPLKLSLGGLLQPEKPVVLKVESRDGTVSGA
Chain of Luciferin 4-monooxygenase (P08659 whole entry): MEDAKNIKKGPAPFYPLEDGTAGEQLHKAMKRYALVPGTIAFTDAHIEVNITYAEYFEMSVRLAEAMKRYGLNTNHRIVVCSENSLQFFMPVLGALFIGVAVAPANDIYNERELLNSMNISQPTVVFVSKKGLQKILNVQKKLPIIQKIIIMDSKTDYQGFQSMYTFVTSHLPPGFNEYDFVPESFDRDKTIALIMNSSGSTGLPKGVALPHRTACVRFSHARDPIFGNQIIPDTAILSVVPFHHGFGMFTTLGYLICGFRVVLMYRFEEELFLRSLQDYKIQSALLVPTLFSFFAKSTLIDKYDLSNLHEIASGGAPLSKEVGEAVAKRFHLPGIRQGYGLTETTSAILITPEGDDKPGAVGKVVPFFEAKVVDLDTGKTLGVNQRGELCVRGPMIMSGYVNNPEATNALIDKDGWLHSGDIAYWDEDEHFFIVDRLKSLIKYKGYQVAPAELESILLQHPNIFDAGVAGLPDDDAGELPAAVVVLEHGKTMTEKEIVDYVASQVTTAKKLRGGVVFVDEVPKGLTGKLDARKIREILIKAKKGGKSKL
Chain of Cytochrome P450 2C19 (P33261 whole entry): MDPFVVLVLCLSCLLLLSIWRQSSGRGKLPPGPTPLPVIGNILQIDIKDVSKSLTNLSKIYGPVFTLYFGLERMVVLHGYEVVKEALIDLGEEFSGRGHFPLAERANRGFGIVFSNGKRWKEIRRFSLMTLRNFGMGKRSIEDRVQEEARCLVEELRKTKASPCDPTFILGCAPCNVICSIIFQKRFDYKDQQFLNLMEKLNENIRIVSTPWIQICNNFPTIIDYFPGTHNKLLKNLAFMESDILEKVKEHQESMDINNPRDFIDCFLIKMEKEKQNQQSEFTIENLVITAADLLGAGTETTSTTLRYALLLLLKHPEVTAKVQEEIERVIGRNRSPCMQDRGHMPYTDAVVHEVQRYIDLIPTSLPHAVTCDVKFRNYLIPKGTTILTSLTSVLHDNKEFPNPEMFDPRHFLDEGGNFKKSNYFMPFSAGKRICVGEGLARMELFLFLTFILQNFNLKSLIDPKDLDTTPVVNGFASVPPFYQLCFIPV

Compound: Cc1ccc(C(=N)NOC(=O)N2c3ccccc3Sc3ccccc32)cc1
- CC50 [1]: 96.4 µM (active)
- CC50 [2]: > 40 µM (active)
- IC50 [3]: 134 µM (active)

Compound: COc1cccc(-c2nc3n(n2)C(c2ccc4c(c2)OCO4)C(C(N)=O)=C(C)N3)c1 (configuration not stated)
- EC50 [4]: 31.6 µM (active)
- EC50 (H4): > 120 µM (not active)
- EC50 [5]: 12.4 µM (active)

Compound: O=C(C1CC1)N1CCCC(c2ccc(Cl)cc2)=N1
- CC50 [2]: > 40 µM (active)

Compound: CCS(=O)(=O)N1Cc2ccccc2CC1C(=O)NC(C)C12CC3CC(CC(C3)C1)C2 (configuration not stated)
- AC50 [6]: 3.56 µM (active)
- AC50 [7]: 4.99 µM (active)
- AC50 [8]: 3.24 µM (active)
- AC50 [9]: 3.91 µM (active)

Compound: C[C@H]1Cn2cnc(C(=O)N3CCN(c4ccccc4)CC3)c2C(=O)N1
- AC50 [6]: 13.4 µM (active)
- AC50 [7]: 7.64 µM (active)
- AC50 [8]: 3.57 µM (active)
- AC50 [9]: 6.04 µM (active)

Compound: C/C(CC(=O)NCCCN1CCOCC1)=N\NC(=O)COc1ccc(Cl)cc1
- AC50 (Cytochrome P450 2C9): inconclusive
- AC50 (Cytochrome P450 2C19): 10 µM (inconclusive)
- AC50 (Cytochrome P450 2D6): 14.1 µM (inconclusive)

Compound: COc1ccc(CNc2ncncc2-c2cccnc2)c(OC)c1
- AC50 (Cytochrome P450 2C9): inconclusive

Compound: CCC(=O)N1N=C(c2ccc(NS(C)(=O)=O)cc2)CC1c1ccc(C)cc1 (configuration not stated)
- CC50 [10]: > 40 µM (active)

Compound: COc1ccccc1OCC(=O)N/N=C1/SCC(=O)N1Cc1ccccc1
- AC50 (Cytochrome P450 2C9): inconclusive
- AC50 (Cytochrome P450 3A4): 0.891 µM (inconclusive)
- AC50 (Cytochrome P450 2D6): 22.4 µM (inconclusive)

Compound: COc1ccccc1C(=O)NN1C(=O)C2C3C=CC(O3)C2C1=O (configuration not stated)
- AC50 (Cytochrome P450 2C9): inconclusive
- AC50 (Cytochrome P450 3A4): 17.8 µM (inconclusive)
- EC50 [11]: > 112 µM (not active)
- EC50 [12]: > 112 µM (not active)

Compound: COc1ccc(CNC(=O)Cn2cccc2C(=O)c2ccccc2C)cc1
- EC50 [4]: 10.2 µM (active)
- EC50 (H4): 16.8 µM (active)
- EC50 [5]: 10.3 µM (active)

Compound: CCOC(=O)c1c(C)c(/C=N/Nc2ccccc2)n(C)c1C
- CC50 [10]: > 40 µM (active)

Compound: CCCCC(=O)NN/C=C1\C(=O)NC(=O)N(Cc2ccco2)C1=O
- IC50 (Nonstructural protein 1): 13.7 µM (active)

Compound: O=C(NC(=S)NNC(=O)c1ccccc1O)c1ccccc1
- EC50 [13]: 2.04 µM (active)
- EC50 (Streptococcus): 8.1 µM (active)
- IC50 (Nonstructural protein 1): 14.2 µM (active)

Compound: Cc1ccc(S(=O)(=O)N(C)c2ccccc2C(=O)N2CCCC2)cc1
- CC50 [10]: > 40 µM (active)

Compound: CCCCCCCCn1cnc2c(N)c(C)c(C)cc21
- CC50 [2]: > 40 µM (active)
